{"source": "the NIST ThermoML archive (doi:10.1021/acs.jced.5b00922)", "key": {"[1]": {"details": "Liquid; for viscosity: Capillary tube (Ostwald / Ubbelohde) method; for mass density: Pycnometric method"}, "[2]": {"assay": "mn = molality of the nth substance listed, in mol/kg", "details": "100 kPa, Liquid, m1 = 4.416; for viscosity: Capillary tube (Ostwald / Ubbelohde) method; for mass density: Pycnometric method; for binary diffusion coefficient: absorption column"}, "[3]": {"assay": "wn = mass fraction of the nth substance listed", "details": "100 kPa, Liquid; for viscosity: Capillary tube (Ostwald / Ubbelohde) method; for mass density: Pycnometric method"}}, "note": "± gives the expanded uncertainty stated by the source."}
{"smiles": "CN(CCO)CCO", "note": "[N-methyldiethanolamine]", "values": [{"measurement": "viscosity", "setting": "[1]; 298 K, 100 kPa", "result": "77.6 ± 1.9", "unit": "mPa·s"}, {"measurement": "mass density", "setting": "[1]; 298 K, 100 kPa", "result": "1036.7 ± 4.8", "unit": "kg/m3"}, {"measurement": "viscosity", "setting": "[1]; 308 K, 100 kPa", "result": "44.33 ± 1.2", "unit": "mPa·s"}, {"measurement": "mass density", "setting": "[1]; 308 K, 100 kPa", "result": "1029.4 ± 4.8", "unit": "kg/m3"}, {"measurement": "viscosity", "setting": "[1]; 323 K, 100 kPa", "result": "22.3 ± 0.78", "unit": "mPa·s"}, {"measurement": "mass density", "setting": "[1]; 323 K, 100 kPa", "result": "1018.5 ± 4.9", "unit": "kg/m3"}]}
{"smiles": "CN(CCO)CCO", "note": "[N-methyldiethanolamine] + O", "values": [{"measurement": "viscosity", "setting": "[2]; 298 K", "result": "3.851 ± 0.091", "unit": "mPa·s"}, {"measurement": "mass density", "setting": "[2]; 298 K", "result": "1036.91 ± 4.5", "unit": "kg/m3"}, {"measurement": "binary diffusion coefficient", "setting": "[2]; 298 K", "result": "8.2e-10", "unit": "m2/s"}, {"measurement": "viscosity", "setting": "[2]; 303 K", "result": "3.22 ± 0.091", "unit": "mPa·s"}, {"measurement": "mass density", "setting": "[2]; 303 K", "result": "1034.27 ± 4.4", "unit": "kg/m3"}, {"measurement": "binary diffusion coefficient", "setting": "[2]; 303 K", "result": "9.5e-10", "unit": "m2/s"}, {"measurement": "viscosity", "setting": "[2]; 308 K", "result": "2.7 ± 0.086", "unit": "mPa·s"}, {"measurement": "mass density", "setting": "[2]; 308 K", "result": "1030.94 ± 4.5", "unit": "kg/m3"}, {"measurement": "binary diffusion coefficient", "setting": "[2]; 308 K", "result": "1.09e-09", "unit": "m2/s"}, {"measurement": "viscosity", "setting": "[2]; 313 K", "result": "2.215 ± 0.08", "unit": "mPa·s"}, {"measurement": "mass density", "setting": "[2]; 313 K", "result": "1027.61 ± 4.5", "unit": "kg/m3"}, {"measurement": "binary diffusion coefficient", "setting": "[2]; 313 K", "result": "1.24e-09", "unit": "m2/s"}, {"measurement": "viscosity", "setting": "[2]; 318 K", "result": "1.89 ± 0.075", "unit": "mPa·s"}, {"measurement": "mass density", "setting": "[2]; 318 K", "result": "1024.05 ± 4.5", "unit": "kg/m3"}, {"measurement": "binary diffusion coefficient", "setting": "[2]; 318 K", "result": "1.37e-09", "unit": "m2/s"}, {"measurement": "viscosity", "setting": "[2]; 323 K", "result": "1.62 ± 0.07", "unit": "mPa·s"}, {"measurement": "mass density", "setting": "[2]; 323 K", "result": "1020.68 ± 4.5", "unit": "kg/m3"}, {"measurement": "binary diffusion coefficient", "setting": "[2]; 323 K", "result": "1.54e-09", "unit": "m2/s"}, {"measurement": "viscosity", "setting": "[3]; 298 K, w1 = 0.1", "result": "1.295 ± 0.1", "unit": "mPa·s"}, {"measurement": "viscosity", "setting": "[3]; 298 K, w1 = 0.2", "result": "1.925 ± 0.11", "unit": "mPa·s"}, {"measurement": "viscosity", "setting": "[3]; 298 K, w1 = 0.3", "result": "3.031 ± 0.11", "unit": "mPa·s"}, {"measurement": "viscosity", "setting": "[3]; 298 K, w1 = 1", "result": "77.6 ± 1.9", "unit": "mPa·s"}, {"measurement": "mass density", "setting": "[3]; 298 K, w1 = 0.1", "result": "1005.7 ± 4.7", "unit": "kg/m3"}, {"measurement": "mass density", "setting": "[3]; 298 K, w1 = 0.2", "result": "1015 ± 4.7", "unit": "kg/m3"}, {"measurement": "mass density", "setting": "[3]; 298 K, w1 = 0.3", "result": "1024.6 ± 4.7", "unit": "kg/m3"}, {"measurement": "mass density", "setting": "[3]; 298 K, w1 = 1", "result": "1036.7 ± 4.8", "unit": "kg/m3"}, {"measurement": "viscosity", "setting": "[3]; 308 K, w1 = 0.1", "result": "1.007 ± 0.1", "unit": "mPa·s"}, {"measurement": "viscosity", "setting": "[3]; 308 K, w1 = 0.2", "result": "1.468 ± 0.1", "unit": "mPa·s"}, {"measurement": "viscosity", "setting": "[3]; 308 K, w1 = 0.3", "result": "2.251 ± 0.11", "unit": "mPa·s"}, {"measurement": "viscosity", "setting": "[3]; 308 K, w1 = 1", "result": "44.33 ± 1.2", "unit": "mPa·s"}, {"measurement": "mass density", "setting": "[3]; 308 K, w1 = 0.1", "result": "1001.9 ± 4.7", "unit": "kg/m3"}, {"measurement": "mass density", "setting": "[3]; 308 K, w1 = 0.2", "result": "1010.9 ± 4.7", "unit": "kg/m3"}, {"measurement": "mass density", "setting": "[3]; 308 K, w1 = 0.3", "result": "1020.2 ± 4.7", "unit": "kg/m3"}, {"measurement": "mass density", "setting": "[3]; 308 K, w1 = 1", "result": "1029.4 ± 4.8", "unit": "kg/m3"}, {"measurement": "viscosity", "setting": "[3]; 323 K, w1 = 0.1", "result": "0.748 ± 0.1", "unit": "mPa·s"}, {"measurement": "viscosity", "setting": "[3]; 323 K, w1 = 0.2", "result": "1.033 ± 0.1", "unit": "mPa·s"}, {"measurement": "viscosity", "setting": "[3]; 323 K, w1 = 0.3", "result": "1.491 ± 0.11", "unit": "mPa·s"}, {"measurement": "viscosity", "setting": "[3]; 323 K, w1 = 1", "result": "22.3 ± 0.78", "unit": "mPa·s"}, {"measurement": "mass density", "setting": "[3]; 323 K, w1 = 0.1", "result": "995.9 ± 4.7", "unit": "kg/m3"}, {"measurement": "mass density", "setting": "[3]; 323 K, w1 = 0.2", "result": "1003.4 ± 4.7", "unit": "kg/m3"}, {"measurement": "mass density", "setting": "[3]; 323 K, w1 = 0.3", "result": "1012 ± 4.7", "unit": "kg/m3"}, {"measurement": "mass density", "setting": "[3]; 323 K, w1 = 1", "result": "1018.5 ± 4.9", "unit": "kg/m3"}]}
{"smiles": "NCCCNCCCN", "note": "[bis(3-aminopropyl)amine]", "values": [{"measurement": "viscosity", "setting": "[1]; 298 K, 101.33 kPa", "result": "8.51 ± 0.15", "unit": "mPa·s"}, {"measurement": "mass density", "setting": "[1]; 298 K, 101.33 kPa", "result": "927.36 ± 4.2", "unit": "kg/m3"}, {"measurement": "viscosity", "setting": "[1]; 303 K, 101.33 kPa", "result": "7.04 ± 0.14", "unit": "mPa·s"}, {"measurement": "mass density", "setting": "[1]; 303 K, 101.33 kPa", "result": "923.34 ± 4.2", "unit": "kg/m3"}, {"measurement": "viscosity", "setting": "[1]; 308 K, 101.33 kPa", "result": "5.92 ± 0.13", "unit": "mPa·s"}, {"measurement": "mass density", "setting": "[1]; 308 K, 101.33 kPa", "result": "919.32 ± 4.2", "unit": "kg/m3"}, {"measurement": "viscosity", "setting": "[1]; 313 K, 101.33 kPa", "result": "5.05 ± 0.13", "unit": "mPa·s"}, {"measurement": "mass density", "setting": "[1]; 313 K, 101.33 kPa", "result": "915.28 ± 4.2", "unit": "kg/m3"}, {"measurement": "viscosity", "setting": "[1]; 318 K, 101.33 kPa", "result": "4.62 ± 0.12", "unit": "mPa·s"}, {"measurement": "mass density", "setting": "[1]; 318 K, 101.33 kPa", "result": "911.18 ± 4.2", "unit": "kg/m3"}, {"measurement": "viscosity", "setting": "[1]; 323 K, 101.33 kPa", "result": "3.99 ± 0.12", "unit": "mPa·s"}, {"measurement": "mass density", "setting": "[1]; 323 K, 101.33 kPa", "result": "906.97 ± 4.2", "unit": "kg/m3"}]}
